Data as given in US20050197372A1 (priority 2002, published 2005).

Columns and labels:
[1] = test system: glycoprotein Ib (GPIb, CD42b); assay: Whole blood flow cytometry, GP Ib expression; assay type: cell-based, human; conditions: for Expression of glycoprotein Ib (GPIb, CD42b): baseline 246.4 ± 26.7
Description: (§1) None of them received aspirin or any other anti-platelet agents. All subjects underwent blood sampling after at least 30 minutes of rest and 2 or more hours of fasting. Blood was drawn between 8 and 10 a.m. in order to avoid any diurnal influence and sampled from an antecubital vein using a 21-gauge butterfly needle containing 3.8% sodium citrate (1:9 volume) after having discarded the first 1.5 ml of free running blood. Eleven Vacutainer tubes (4.5 ml) were collected for a total of 49 ml of whole blood-citrate mixture from each study participant. One tube was kept as an internal control and was incubated with buffer solution. […] To avoid possible observer bias, blood samples were coded and blinded. Sampling procedures, and platelet studies were performed by individuals unaware of the protocol.
(§2) The expression of platelet receptors was determined by using the following monoclonal antibodies: CD31 (platelet endothelial cell adhesion molecule (PECAM-1), CD41 (glycoprotein [GP] IIb/IIIa, (IIb (3), CD42b (GP Ib), CD 51/CD61 ((v (3, or vitronectin receptor), CD62p (P-selectin), CD107a (lysosome associated membrane protein-1; LAMP-1), CD 107b (LAMP-2), CD151 (platelet/endothelial tetraspan antigen-3; PETA-3), and PAC-1 for fibrinogen-platelet (PharMingen, San Diego, Calif.). Platelet-leukocyte interactions were assessed by using dual antibodies for a pan-platelet marker (CD 151), together with CD14, a monocyte/macrophage marker. The blood-citrate mixture (50 μl) was diluted with 450 μl Tris buffered saline (TBS) (10 mmol/L Tris, 0.15 mol/L sodium chloride) and mixed by gently inverting an Eppendorf tube 2 times. Five μl of the corresponding antibodies were then added to each solution and the samples were incubated for 30 minutes. After incubation, 400 μl of 2% buffered paraformaldehyde was added for fixation. The samples were analyzed by a Becton Dickinson FACScan flow cytometer set up to measure fluorescent light scatter, as described in Gurbel P A, et al., J Am Coll Cardiol. 1998; 31: 1466-1473. The data were collected in list mode files and then analyzed. P selectin was expressed as percent positive cells as described in Gurbel P A, et al, Am Heart J 2000; 139: 320-328. Other antigens were expressed as log mean fluorescence intensity.

[2] = test system: platelet glycoprotein IIb/IIIa antigen (GPIIb, CD41); assay: Whole blood flow cytometry, GP IIb/IIIa antigen expression; assay type: cell-based, human; conditions: for Expression of platelet glycoprotein IIb/IIIa antigen (GPIIb, CD41): baseline 521.8 ± 98.2
Description: as §1, §2

[3] = test system: lysosome associated membrane protein -1 (LAMP-1, CD107a); assay: Whole blood flow cytometry, LAMP-1 expression; assay type: cell-based, human; conditions: baseline 8.7 ± 3.2
Description: as §1, §2

[4] = test system: human platelets in whole blood; assay: Whole blood impedance platelet aggregation induced by collagen; assay type: cell-based; conditions: for Whole blood impedance platelet aggregation induced by 1 μg/ml collagen: 60 minutes at 37° C., baseline 29 ± 7
Description: as §1
The methods are described in detail in Abbate R, et al., Amer J Clin Pathol 1986; 86: 91-96. Briefly, the whole blood citrate mixture was diluted 1:1 with 0.5 ml TBS, then swirled gently. The cuvette with the stirring bar was placed in the incubation well and allowed to warm to 37° C. for 5 minutes. Then the sample was transferred to the assay well. An electrode was placed in the sample cuvette. Platelet aggregation was stimulated with 1 μg/ml collagen. Platelet aggregation studies were performed using a Chrono-Log Whole Blood Aggregometer using Aggrolink” software. Platelet aggregability was expressed as the change in electrical impedance and is expressed in ohms.

[5] = test system: platelet vitronectin receptor (CD51/CD61); assay: Whole blood flow cytometry, vitronectin receptor expression; assay type: cell-based, human; conditions: for Expression of platelet vitronectin receptor (CD51/CD61): baseline 11.2 ± 4.6
Description: as §1, §2

P-selectin (CD 62p) = assay: Whole blood flow cytometry, P-selectin expression; assay type: cell-based, human; conditions: for Expression of P-selectin (CD 62p): baseline 9.1 ± 3.8
Description: as §1, §2

[6] = test system: shear-induced platelet aggregation; assay: PFA-100 closure time, epinephrine/collagen cartridge; assay type: cell-based, human; conditions: for PFA-100 closure time with the epinephrine/collagen cartridge: baseline 201 ± 22
Description: as §1
The platelet function analyzer (PFA-100′, Dade Behring, Deerfield, Ill.) is a device that simulates changes in primary hemostasis after injury to a small vessel under flow conditions. Kundu S K, et al., Semin Thromb Hemost 1995; 21(Suppl 2): 106-112. The time required to obtain occlusion of the aperture was digitally recorded as a measure of shear-induced platelet aggregation. Closure time determinations were performed in duplicate.

[7] = patients undergoing valsartan therapy; cited from earlier work

CC(O)CCC(=O)N(Cc1ccc(-c2ccccc2-c2nnn[nH]2)cc1)[C@H](C(=O)O)C(C)C (stereo partly drawn) [Valeryl 4-hydroxy valsartan, (S)-2{(4-Hydroxy-pentanoyl)-[2′-(1H-tetrazol-5-yl)-biphenyl-4-ylmethyl]amino}-3-methyl-butyric Acid]
Expression of glycoprotein Ib (GPIb, CD42b) ([1]; drug 10 nM): 236.4 ± 18.7 log MFI
Expression of glycoprotein Ib (GPIb, CD42b) ([1]; drug 100 nM): 267.9 ± 39.4 log MFI
Expression of glycoprotein Ib (GPIb, CD42b) ([1]; drug 1 μM): 255.5 ± 24.8 log MFI
Expression of glycoprotein Ib (GPIb, CD42b) ([1]; drug 10 μM): 249.7 ± 41.8 log MFI
Expression of glycoprotein Ib (GPIb, CD42b) ([1]; drug 100 μM): 248.1 ± 19.5 log MFI
Effect on GP Ib (CD42) (in words) ([1]; whole blood flow cytometry): not associated with any effect
Expression of platelet glycoprotein IIb/IIIa antigen (GPIIb, CD41) ([2]; drug 10 nM): 505.6 ± 77.8 log MFI
Expression of platelet glycoprotein IIb/IIIa antigen (GPIIb, CD41) ([2]; drug 100 nM): 432.7 ± 116.8 log MFI
Expression of platelet glycoprotein IIb/IIIa antigen (GPIIb, CD41) ([2]; drug 1 μM): 427.2 ± 114.1 log MFI
Expression of platelet glycoprotein IIb/IIIa antigen (GPIIb, CD41) ([2]; drug 10 μM): 515.9 ± 156.2 log MFI
Expression of platelet glycoprotein IIb/IIIa antigen (GPIIb, CD41) ([2]; drug 100 μM): 529.3 ± 121.8 log MFI
Effect on expression of GP IIb/IIIa (CD 41) (in words) ([2]; whole blood flow cytometry): slightly reduced
Expression of lysosome associated membrane protein -1 (LAMP-1, CD107a) ([3]; drug 10 nM): 10.2 ± 3.6 log MFI
Expression of lysosome associated membrane protein -1 (LAMP-1, CD107a) ([3]; drug 100 nM): 9.0 ± 4.0 log MFI
Expression of lysosome associated membrane protein -1 (LAMP-1, CD107a) ([3]; drug 1 μM): 6.6 ± 2.9 log MFI
Expression of lysosome associated membrane protein -1 (LAMP-1, CD107a) ([3]; drug 10 μM): 5.8 ± 3.2 log MFI
Expression of lysosome associated membrane protein -1 (LAMP-1, CD107a) ([3]; drug 100 μM): 8.0 ± 3.4 log MFI
Effect on collagen-induced platelet aggregation in whole blood (in words) ([4]; 1 μM collagen as printed in text, within the range of therapeutic activity): inhibited aggregation
Whole blood impedance platelet aggregation induced by 1 μg/ml collagen ([4]; drug 10 nM): 32 ± 8 ohms
Whole blood impedance platelet aggregation induced by 1 μg/ml collagen ([4]; drug 100 nM): 31 ± 9 ohms
Whole blood impedance platelet aggregation induced by 1 μg/ml collagen ([4]; drug 1 μM): 14 ± 6 ohms
Whole blood impedance platelet aggregation induced by 1 μg/ml collagen ([4]; drug 10 μM): 16 ± 8 ohms
Whole blood impedance platelet aggregation induced by 1 μg/ml collagen ([4]; drug 100 μM): 17 ± 8 ohms
Expression of platelet vitronectin receptor (CD51/CD61) ([5]; drug 10 nM): 12.1 ± 4.2 log MFI
Expression of platelet vitronectin receptor (CD51/CD61) ([5]; drug 100 nM): 8.5 ± 3.1 log MFI
Expression of platelet vitronectin receptor (CD51/CD61) ([5]; drug 1 μM): 8.1 ± 3.8 log MFI
Expression of platelet vitronectin receptor (CD51/CD61) ([5]; drug 10 μM): 7.2 ± 5.6 log MFI
Expression of platelet vitronectin receptor (CD51/CD61) ([5]; drug 100 μM): 7.6 ± 3.3 log MFI
Effect on expression of vitronectin receptors (in words) ([5]; whole blood flow cytometry): moderately reduced
Expression of P-selectin (CD 62p) (P-selectin (CD 62p); drug 10 nM): 9.3 ± 4.3 % of cell positivity
Expression of P-selectin (CD 62p) (P-selectin (CD 62p); drug 100 nM): 10.2 ± 5.4 % of cell positivity
Expression of P-selectin (CD 62p) (P-selectin (CD 62p); drug 1 μM): 7.3 ± 3.7 % of cell positivity
Expression of P-selectin (CD 62p) (P-selectin (CD 62p); drug 10 μM): 6.9 ± 4.2 % of cell positivity
Expression of P-selectin (CD 62p) (P-selectin (CD 62p); drug 100 μM): 8.9 ± 3.8 % of cell positivity
Effect on P-selectin on platelet surface (in words) (P-selectin (CD 62p); whole blood flow cytometry): significantly diminished
Antiplatelet properties compared with valsartan (in words) ([6]; cartridge-based analyzers (PFA-100 and Ultegra)): stronger antiplatelet properties than valsartan
PFA-100 closure time with the epinephrine/collagen cartridge ([6]; drug 10 nM): 179 ± 28 s
PFA-100 closure time with the epinephrine/collagen cartridge ([6]; drug 100 nM): 190 ± 24 s
PFA-100 closure time with the epinephrine/collagen cartridge ([6]; drug 1 μM): 259 ± 20 s
PFA-100 closure time with the epinephrine/collagen cartridge ([6]; drug 10 μM): 257 ± 25 s
PFA-100 closure time with the epinephrine/collagen cartridge ([6]; drug 100 μM): 232 ± 31 s
Level in plasma as share of valsartan levels [7]: 10%
